ChEMBL document CHEMBL4825699, “Metabolic and conformational stabilization of a VEGF-mimetic beta-hairpin peptide by click-chemistry” (Eur J Med Chem, 2021)
Active and inactive are the calls of the source. No cut-off for these calls is given here.

Columns and labels:
[1] = Metabolic stability of the compound in 50% human serum assessed as half life by RP-HPLC analysis; format: ADME, cell-free
HUVEC [2] = assay: Cytotoxicity against human HUVEC assessed as reduction in cell viability at 50 nM measured after 48 hrs by CyQuant NF Cell Proliferation assay; format: cell-based; conditions: 0.05 µM
HUVEC [3] = assay: Binding affinity to VEGFR in human HUVEC assessed as induction of cell proliferation measured after 24 to 48 hrs by CyQuant NF Cell Proliferation assay; conditions: dose 25-50 nM, time 24-48 hrs
HUVEC [4] = assay: Binding affinity to VEGFR in human HUVEC assessed as induction of cell proliferation at 50 nM measured after 48 hrs in presence of 250 nM VEGFR1D2 by CyQuant NF Cell Proliferation assay
[5] = Metabolic stability of the compound in 50% human serum assessed as drug degradation incubated for 120 mins by RP-HPLC analysis; format: ADME, cell-free; conditions: read-out: Drug degradation
HUVEC [6] = assay: Binding affinity to VEGFR in human HUVEC assessed as induction of cell proliferation at 25 to 50 nM measured after 48 hrs by CyQuant NF Cell Proliferation assay relative to control; conditions: dose 25-50 nM
HUVEC [7] = assay: Pro-angiogenic activity in human HUVEC assessed as organization into capillary network formation by measuring increase in branch points number counting at 50 nM measured after 6 hrs by inverted microscopy relative to HPLW; format: functional
[8] = Metabolic stability of the compound in 50% human serum incubated for 120 mins by RP-HPLC analysis; format: ADME, cell-free; conditions: read-out: Stabilty
HUVEC [9] = assay: Binding affinity to VEGFR in human HUVEC assessed as induction of cell proliferation at 25 to 50 nM measured after 48 hrs by CyQuant NF Cell Proliferation assay relative to HPLW; conditions: dose 25-50 nM
HUVEC [10] = assay: Binding affinity to VEGFR in human HUVEC assessed as induction of cell proliferation at 25 to 50 nM measured after 48 hrs by CyQuant NF Cell Proliferation assay relative to Ac-HPLW-NH2; conditions: dose 25-50 nM
HUVEC [11] = assay: Pro-angiogenic activity in human HUVEC assessed as organization into capillary network formation by measuring increase in branch points number counting at 50 nM measured after 6 hrs by inverted microscopy relative to Ac-HPLW-NH2; format: functional

half-life [1] | metabolised at 2 h [5] | remaining at 2 h [8] | Compound | Activity (HUVEC [2]) | Activity (HUVEC [3]) | Activity (HUVEC [4]) | Activity (HUVEC [6]) | Activity (HUVEC [7]) | Activity (HUVEC [9]) | Activity (HUVEC [10]) | Activity (HUVEC [11])
25 min | 100% | – | H-KQLLWIRSGDRPWYYTS-OH | Non-Toxic | Dose-Dependent Effect | inactive | – | – | – | – | –
– | – | 100% | CC[C@H](C)[C@@H]1NC(=O)[C@@H](NC(=O)[C@H](CC(C)C)NC(=O)[C@H](CC(C)C)NC(=O)[C@H](CCC(N)=O)NC(=O)[C@H](CCCCN)NC(C)=O)CCCc2cn(nn2)CCC[C@@H](C(=O)N[C@@H](Cc2ccc(O)cc2)C(=O)N[C@@H](Cc2c[nH]c3ccccc23)C(=O)N[C@H](C(=O)N[C@@H](CO)C(N)=O)[C@@H](C)O)NC(=O)[C@@H]2CCCN2C(=O)[C@H](CCCNC(=N)N)NC(=O)[C@H](CC(=O)O)NC(=O)CNC(=O)[C@H](CO)NC(=O)[C@H](CCCNC(=N)N)NC1=O | Non-Toxic | Toxic | inactive | 92% | 13% | 37% | 30% | 28%
25 min | 100% | – | Ac-KQLLWIRSGDRPWYYTS-NH2 | Non-Toxic | Dose-Dependent Effect | inactive | – | – | – | – | –
